Laboratory results: ChEMBL document CHEMBL4406807, “Discovery of 3,4,6-Trisubstituted Piperidine Derivatives as Orally Active, Low hERG Blocking Akt Inhibitors via Conformational Restriction and Structure-Based Design” (J Med Chem, 2019)

Tests used:
[1] = Microsomal stability in rat liver microsomes assessed as compound remaining at 100 ug/ml in presence of NADPH measured at 1.5 hrs by LC/MS analysis; format: ADME, Microsome; details: read-out: Stability
[2] = Volume of distribution in ICR mouse at 40 mg/kg, ig measured up to 48 hrs by LC-MS/MS analysis; format: ADME, organism-based; details: in vivo, po
[3] = target: ATP-sensitive inward rectifier potassium channel 1 (Homo sapiens, UniProt P48048); experiment: Inhibition of Kir1.1 (unknown origin) at 3 uM relative to control
[4] = Drug level in tumor of human SKOV3 cells xenografted in BALB/c nude mouse at 50 mg/kg administered for 7 consecutive days; format: ADME, organism-based, Neoplasm; details: in vivo
[5] = Toxicity in BALB/c nude mouse xenografted with human SKOV3 cells assessed as effect on body weight at 60 to 80 mg/kg, po administered once daily for 21 days; format: organism-based; details: in vivo, 504 h
[6] = target: Potassium voltage-gated channel subfamily A member 7 (Homo sapiens, UniProt Q96RP8); experiment: Inhibition of Kv1.7 (unknown origin) at 3 uM relative to control
OVCAR-8 = experiment: Antiproliferative activity against human OVCAR8 cells; format: functional, cell-based
[7] = Half-life in Sprague-Dawley rat at 40 mg/kg, ig measured up to 24 hrs by LC-MS/MS analysis; format: ADME, organism-based; details: in vivo, po
[8] = Microsomal stability in monkey liver microsomes assessed as compound remaining at 100 ug/ml in presence of NADPH measured at 1.5 hrs by LC/MS analysis; format: ADME, Macaca mulatta, Microsome; details: rhesus monkey, read-out: Stability
[9] = Stability in human plasma at 100 ug/ml after 1 hr by LC/MS analysis; format: ADME, cell-free; details: read-out: Stability
SK-OV-3 [10] = experiment: Induction of apoptosis in human SKOV3 cells at 2 uM by FACS based flow cytometric analysis (reference value: 7.63%); format: functional
[11] = target: Potassium/sodium hyperpolarization-activated cyclic nucleotide-gated channel 2 (Homo sapiens, UniProt Q9UL51); experiment: Inhibition of HCN2 (unknown origin) at 3 uM relative to control
[12] = Stability in mouse plasma at 100 ug/ml after 1 hr by LC/MS analysis; format: ADME, cell-free; details: read-out: Stability
[13] = AUC (0 to infinity) in ICR mouse at 40 mg/kg, ig measured up to 48 hrs by LC-MS/MS analysis; format: ADME, organism-based; design: dose 40 mg/kg, time infinity, route […]; details: in vivo, po
[14] = Clearance in Sprague-Dawley rat at 40 mg/kg, ig measured up to 24 hrs by LC-MS/MS analysis; format: ADME, organism-based; details: in vivo, po
SK-OV-3 [15] = experiment: Antitumor activity against human SKOV3 cells xenografted in BALB/c nude mouse assessed as tumor growth inhibition at 60 mg/kg, po administered once daily for 21 days relative to control; format: functional; details: SK-OV-3, po, 504 h, read-out: TGI
[16] = target: Potassium/sodium hyperpolarization-activated cyclic nucleotide-gated channel 3 (Homo sapiens, UniProt Q9P1Z3); experiment: Inhibition of HCN3 (unknown origin) at 3 uM relative to control
[17] = target: T1, Serine/threonine-protein kinase Sgk1 (Homo sapiens, UniProt O00141); experiment: Inhibition of human SGK by mobility shift assay
T1 sequence (O00141 whole entry): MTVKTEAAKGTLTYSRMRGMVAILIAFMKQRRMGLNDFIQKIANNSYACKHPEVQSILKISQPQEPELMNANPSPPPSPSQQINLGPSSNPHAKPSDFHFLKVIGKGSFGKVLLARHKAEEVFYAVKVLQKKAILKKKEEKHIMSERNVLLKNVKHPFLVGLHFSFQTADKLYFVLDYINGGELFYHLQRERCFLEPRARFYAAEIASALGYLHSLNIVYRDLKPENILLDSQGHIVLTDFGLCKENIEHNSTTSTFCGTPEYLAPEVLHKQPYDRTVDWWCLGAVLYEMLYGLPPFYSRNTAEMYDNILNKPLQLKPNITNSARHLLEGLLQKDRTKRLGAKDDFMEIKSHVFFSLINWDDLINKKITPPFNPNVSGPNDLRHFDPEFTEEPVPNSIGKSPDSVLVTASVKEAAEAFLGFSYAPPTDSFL

[18] = Oral bioavailability in ICR mouse at 40 mg/kg measured up to 48 hrs by LC-MS/MS analysis; format: ADME, organism-based; details: in vivo
hERG (KCNH2) = hERG (KCNH2) (Homo sapiens, UniProt Q12809); experiment: Inhibition of ERG in human HEK293 cells at 3 uM at -80 mV holding potential by whole-cell patch clamp assay relative to control; format: cell-based; details: HEK293 cells expressing ERG
[19] = target: Potassium voltage-gated channel subfamily A member 3 (Homo sapiens, UniProt P22001); experiment: Inhibition of Kv1.3 (unknown origin) at 3 uM relative to control
[20] = target: Serine/threonine-protein kinase AKT (Homo sapiens, UniProt P31751+Q9Y243+P31749); experiment: Inhibition of Akt in human LNCaP cells assessed as reduction in PRAS40 phosphorylation at T246 residue after 1 hr by ELISA; format: cell-based
[21] = Toxicity in ICR mouse assessed as induction of intestinal hemorrhage at 80 to 160 mg/kg, ig; format: organism-based; details: in vivo, po
[22] = target: Sodium channel protein type 9 subunit alpha (Homo sapiens, UniProt Q15858); experiment: Inhibition of Nav1.7 (unknown origin)
[23] = target: Potassium voltage-gated channel subfamily A member 4 (Homo sapiens, UniProt P22459); experiment: Inhibition of Kv1.4 (unknown origin) at 3 uM relative to control
[24] = target: Potassium/sodium hyperpolarization-activated cyclic nucleotide-gated channel 1 (Homo sapiens, UniProt O60741); experiment: Inhibition of HCN1 (unknown origin) at 3 uM relative to control
SK-OV-3 [25] = experiment: Induction of apoptosis in human SKOV3 cells at 10 uM by FACS based flow cytometric analysis (reference value: 7.63%); format: functional
[26] = target: Cystic fibrosis transmembrane conductance regulator (Homo sapiens, UniProt P13569); experiment: Inhibition of CFTR (unknown origin)
[27] = Toxicity in ICR mouse assessed as effect on body weight at 80 to 160 mg/kg, ig administered once daily for 7 days; format: organism-based; details: in vivo, po, 168 h

Sequence of Potassium/sodium hyperpolarization-activated cyclic nucleotide-gated channel 3 (Q9P1Z3 whole entry): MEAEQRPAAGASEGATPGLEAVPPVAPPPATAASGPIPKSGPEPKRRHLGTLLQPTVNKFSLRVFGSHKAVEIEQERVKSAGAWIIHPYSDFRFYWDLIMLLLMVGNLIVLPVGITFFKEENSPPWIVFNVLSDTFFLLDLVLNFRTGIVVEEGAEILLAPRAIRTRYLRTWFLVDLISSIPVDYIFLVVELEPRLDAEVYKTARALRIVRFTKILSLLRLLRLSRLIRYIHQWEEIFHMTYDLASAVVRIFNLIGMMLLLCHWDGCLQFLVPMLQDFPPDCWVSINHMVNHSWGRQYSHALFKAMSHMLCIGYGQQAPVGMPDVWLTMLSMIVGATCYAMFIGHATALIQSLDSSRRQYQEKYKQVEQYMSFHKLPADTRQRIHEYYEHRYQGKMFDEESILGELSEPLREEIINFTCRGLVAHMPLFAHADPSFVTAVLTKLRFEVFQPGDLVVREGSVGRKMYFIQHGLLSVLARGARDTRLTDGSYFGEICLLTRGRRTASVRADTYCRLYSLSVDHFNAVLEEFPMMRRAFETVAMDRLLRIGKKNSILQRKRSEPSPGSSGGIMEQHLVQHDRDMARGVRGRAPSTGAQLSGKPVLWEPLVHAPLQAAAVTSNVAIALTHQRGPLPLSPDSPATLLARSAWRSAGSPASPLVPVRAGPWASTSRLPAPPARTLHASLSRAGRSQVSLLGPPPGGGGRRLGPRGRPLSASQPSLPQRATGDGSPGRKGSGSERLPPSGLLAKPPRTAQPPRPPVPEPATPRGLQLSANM
Sequence of ATP-sensitive inward rectifier potassium channel 1 (P48048 whole entry): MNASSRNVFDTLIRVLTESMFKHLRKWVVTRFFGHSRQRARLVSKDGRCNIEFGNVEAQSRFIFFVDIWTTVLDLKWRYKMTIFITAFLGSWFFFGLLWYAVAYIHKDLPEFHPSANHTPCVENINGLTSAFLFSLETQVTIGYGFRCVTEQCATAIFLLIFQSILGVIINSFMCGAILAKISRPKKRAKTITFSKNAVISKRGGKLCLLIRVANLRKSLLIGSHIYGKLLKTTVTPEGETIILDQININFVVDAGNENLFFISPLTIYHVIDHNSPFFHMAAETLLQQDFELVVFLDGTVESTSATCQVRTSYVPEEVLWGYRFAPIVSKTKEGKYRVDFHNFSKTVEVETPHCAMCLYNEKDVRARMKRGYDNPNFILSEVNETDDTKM
Sequence of Potassium voltage-gated channel subfamily A member 3 (P22001 whole entry): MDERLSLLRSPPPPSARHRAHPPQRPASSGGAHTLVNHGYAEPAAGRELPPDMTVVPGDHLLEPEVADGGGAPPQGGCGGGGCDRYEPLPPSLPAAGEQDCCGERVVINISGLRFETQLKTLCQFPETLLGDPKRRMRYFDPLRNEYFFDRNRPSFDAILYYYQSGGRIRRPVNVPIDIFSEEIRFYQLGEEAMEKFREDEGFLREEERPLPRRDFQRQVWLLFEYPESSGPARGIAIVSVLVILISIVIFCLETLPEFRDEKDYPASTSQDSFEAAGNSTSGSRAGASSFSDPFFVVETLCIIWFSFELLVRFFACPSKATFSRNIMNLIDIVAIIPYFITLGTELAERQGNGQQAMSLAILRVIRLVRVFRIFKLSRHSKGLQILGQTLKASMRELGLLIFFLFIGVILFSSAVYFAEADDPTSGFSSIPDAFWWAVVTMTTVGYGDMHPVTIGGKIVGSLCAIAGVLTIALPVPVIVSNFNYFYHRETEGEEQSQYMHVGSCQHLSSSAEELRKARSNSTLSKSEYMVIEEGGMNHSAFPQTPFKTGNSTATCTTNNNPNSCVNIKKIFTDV
Sequence of Potassium voltage-gated channel subfamily A member 7 (Q96RP8 whole entry): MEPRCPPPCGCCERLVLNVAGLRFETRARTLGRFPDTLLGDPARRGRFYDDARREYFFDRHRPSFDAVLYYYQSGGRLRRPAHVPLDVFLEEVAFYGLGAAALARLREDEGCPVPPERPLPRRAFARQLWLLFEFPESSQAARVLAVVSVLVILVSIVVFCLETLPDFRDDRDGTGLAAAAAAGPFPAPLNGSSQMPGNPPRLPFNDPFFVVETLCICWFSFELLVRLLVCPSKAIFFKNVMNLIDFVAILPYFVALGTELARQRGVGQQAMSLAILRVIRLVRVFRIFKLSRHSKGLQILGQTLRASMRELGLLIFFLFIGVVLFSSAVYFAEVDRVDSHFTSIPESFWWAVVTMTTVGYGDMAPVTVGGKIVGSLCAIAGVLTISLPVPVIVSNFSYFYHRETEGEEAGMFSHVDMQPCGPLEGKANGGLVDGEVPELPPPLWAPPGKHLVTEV
Sequence of hERG (KCNH2) (Q12809 whole entry): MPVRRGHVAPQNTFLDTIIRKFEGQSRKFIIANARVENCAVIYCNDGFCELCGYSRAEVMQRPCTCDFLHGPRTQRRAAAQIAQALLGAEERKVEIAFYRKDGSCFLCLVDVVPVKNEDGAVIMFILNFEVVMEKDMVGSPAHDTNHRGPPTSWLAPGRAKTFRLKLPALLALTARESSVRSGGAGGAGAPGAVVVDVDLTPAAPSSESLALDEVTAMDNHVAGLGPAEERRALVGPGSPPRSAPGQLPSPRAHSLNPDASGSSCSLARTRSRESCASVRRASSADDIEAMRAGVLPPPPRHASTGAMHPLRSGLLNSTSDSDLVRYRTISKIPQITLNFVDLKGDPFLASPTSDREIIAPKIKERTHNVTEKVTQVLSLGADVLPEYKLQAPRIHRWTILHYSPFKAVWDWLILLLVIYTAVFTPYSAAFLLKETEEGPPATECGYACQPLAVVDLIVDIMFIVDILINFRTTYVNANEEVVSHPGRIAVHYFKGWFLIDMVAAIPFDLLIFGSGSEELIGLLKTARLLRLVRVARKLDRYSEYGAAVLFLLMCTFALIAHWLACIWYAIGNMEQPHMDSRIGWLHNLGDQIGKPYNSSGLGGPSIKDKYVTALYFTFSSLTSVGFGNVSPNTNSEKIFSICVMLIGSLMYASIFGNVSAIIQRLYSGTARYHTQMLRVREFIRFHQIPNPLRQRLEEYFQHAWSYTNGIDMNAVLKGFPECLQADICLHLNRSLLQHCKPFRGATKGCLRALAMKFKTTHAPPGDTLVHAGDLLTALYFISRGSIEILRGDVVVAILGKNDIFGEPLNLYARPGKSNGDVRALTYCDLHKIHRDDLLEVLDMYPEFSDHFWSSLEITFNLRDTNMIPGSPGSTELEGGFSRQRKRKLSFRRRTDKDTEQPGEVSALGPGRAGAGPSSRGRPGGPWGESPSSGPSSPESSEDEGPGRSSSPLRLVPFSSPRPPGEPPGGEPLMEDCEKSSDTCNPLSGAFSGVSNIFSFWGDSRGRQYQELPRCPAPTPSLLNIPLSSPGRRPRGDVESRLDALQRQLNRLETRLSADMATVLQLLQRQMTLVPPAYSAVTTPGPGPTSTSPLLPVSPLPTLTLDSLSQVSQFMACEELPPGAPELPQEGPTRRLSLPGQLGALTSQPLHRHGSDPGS
Sequence of Potassium voltage-gated channel subfamily A member 4 (P22459 whole entry): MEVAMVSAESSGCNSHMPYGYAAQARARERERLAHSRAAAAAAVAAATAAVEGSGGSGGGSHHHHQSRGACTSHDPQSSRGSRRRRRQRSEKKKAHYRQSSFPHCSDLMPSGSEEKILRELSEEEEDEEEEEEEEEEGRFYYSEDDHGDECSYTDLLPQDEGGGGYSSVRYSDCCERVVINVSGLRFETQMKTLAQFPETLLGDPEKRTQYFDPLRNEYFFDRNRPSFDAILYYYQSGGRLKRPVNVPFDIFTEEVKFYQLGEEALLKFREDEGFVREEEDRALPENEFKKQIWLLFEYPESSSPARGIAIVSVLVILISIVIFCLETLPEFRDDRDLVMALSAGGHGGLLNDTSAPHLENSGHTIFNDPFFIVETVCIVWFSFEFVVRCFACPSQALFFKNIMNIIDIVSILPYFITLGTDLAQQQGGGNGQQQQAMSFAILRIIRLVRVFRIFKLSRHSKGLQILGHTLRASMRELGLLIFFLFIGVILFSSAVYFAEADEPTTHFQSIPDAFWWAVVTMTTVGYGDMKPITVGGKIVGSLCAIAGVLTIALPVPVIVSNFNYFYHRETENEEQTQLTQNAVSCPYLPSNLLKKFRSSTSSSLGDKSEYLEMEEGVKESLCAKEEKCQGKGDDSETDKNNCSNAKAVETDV
Sequence of Potassium/sodium hyperpolarization-activated cyclic nucleotide-gated channel 2 (Q9UL51 whole entry): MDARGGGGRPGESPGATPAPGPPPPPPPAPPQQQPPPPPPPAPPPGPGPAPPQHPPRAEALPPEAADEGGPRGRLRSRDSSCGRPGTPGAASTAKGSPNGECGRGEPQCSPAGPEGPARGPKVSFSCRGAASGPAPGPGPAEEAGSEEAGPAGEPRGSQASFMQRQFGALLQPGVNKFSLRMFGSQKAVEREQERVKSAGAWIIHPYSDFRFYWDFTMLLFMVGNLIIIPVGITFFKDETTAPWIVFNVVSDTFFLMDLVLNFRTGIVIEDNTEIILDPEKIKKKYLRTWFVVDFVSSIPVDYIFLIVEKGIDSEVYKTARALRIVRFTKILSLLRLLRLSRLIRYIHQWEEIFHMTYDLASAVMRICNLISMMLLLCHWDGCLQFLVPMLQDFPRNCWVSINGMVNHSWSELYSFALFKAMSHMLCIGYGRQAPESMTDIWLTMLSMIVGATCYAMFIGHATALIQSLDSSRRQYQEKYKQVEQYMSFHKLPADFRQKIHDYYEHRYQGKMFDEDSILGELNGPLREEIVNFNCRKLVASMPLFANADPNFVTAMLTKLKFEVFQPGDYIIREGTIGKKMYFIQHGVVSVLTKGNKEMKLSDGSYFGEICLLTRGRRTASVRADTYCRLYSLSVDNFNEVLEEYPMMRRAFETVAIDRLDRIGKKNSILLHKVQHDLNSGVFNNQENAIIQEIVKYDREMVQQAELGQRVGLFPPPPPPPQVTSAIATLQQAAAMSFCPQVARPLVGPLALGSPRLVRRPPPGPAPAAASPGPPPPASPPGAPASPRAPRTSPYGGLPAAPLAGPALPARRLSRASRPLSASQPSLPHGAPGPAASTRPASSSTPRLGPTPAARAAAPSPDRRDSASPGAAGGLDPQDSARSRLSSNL

With CNC(=O)C[C@@H]1C[C@@H](c2ccc(F)c(F)c2)[C@H](NC(=O)c2cc(-c3c(Cl)cnn3C)c(Cl)o2)CN1 the remaining at 1.5 h, 100 ug/ml [1] was 89%, the Vd [2] was 9 L/kg and the “inhibition (INH)” value [3] was “Not Active”. For the same compound, the Drug uptake [4] was 560 ng/mL, the Activity [5] was “Non-Toxic” and the “inhibition (INH)” value [6] was “Not Active”. The IC50 (OVCAR-8) was 800 nM, the half-life [7] was 6.4 h and the remaining at 1.5 h, 100 ug/ml [8] was 84%. For the same compound, the remaining at 1 h, 100 ug/ml [9] was over 99%, the Activity (SK-OV-3 [10]) was 64.22% and the “inhibition (INH)” value [11] was “Not Active”. The remaining at 1 h, 100 ug/ml [12] was over 99%, the AUC(0-inf) [13] was 21200 ng·h/mL and the CL/F [14] was 237 mL/min/kg. For the same compound, the inhibition in vivo at 60 mg/kg (SK-OV-3 [15]) was 79.2%, the “inhibition (INH)” value [16] was “Not Active” and the IC50 [17] was 145 nM. For the same compound, the bioavailability [18] was 48.4%, the inhibition at 3 µM (hERG (KCNH2)) was 4% and the “inhibition (INH)” value [19] was “Not Active”. For the same compound, the IC50 [20] was 44 nM, the Activity [21] was “Toxic” and the “inhibition (INH)” value [22] was “Not Active”. The “inhibition (INH)” value [23] was “Not Active”, the “inhibition (INH)” value [24] was “Not Active” and the Activity (SK-OV-3 [25]) was 79.9%. For the same compound, the “inhibition (INH)” value [26] was “Not Active” and the Activity [27] was “Non-Toxic”.
